Numbers after ± are expanded uncertainties.
Legend:
[1] = 100 kPa, Liquid; for viscosity: Falling or rolling sphere viscometry; for speed of sound: Frequency=3 MHz, Single path-length method; for mass density: Vibrating tube method
[2] = xn = mol fraction of the nth substance listed; details: 100 kPa, Liquid, x2 = 0; for viscosity: Falling or rolling sphere viscometry; for speed of sound: Frequency=3 MHz, Single path-length method; for mass density: Vibrating tube method

CCCCn1cc[n+](C)c1.O=S(=O)([O-])C(F)(F)F [1-butyl-3-methylimidazolium trifluoromethanesulfonate]
viscosity ([1]; 298.15 K): 82.38 ± 1.7 mPa·s | speed of sound ([1]; 298.15 K): 1393.2 ± 2.8 m/s | mass density ([1]; 298.15 K): 1297.46 ± 2.4 kg/m3 | viscosity ([1]; 303.15 K): 66.69 ± 1.2 mPa·s | speed of sound ([1]; 303.15 K): 1382.8 ± 2.8 m/s | mass density ([1]; 303.15 K): 1293.46 ± 2.4 kg/m3 | viscosity ([1]; 308.15 K): 52.86 ± 0.96 mPa·s | speed of sound ([1]; 308.15 K): 1371.7 ± 2.8 m/s | mass density ([1]; 308.15 K): 1289.47 ± 2.4 kg/m3 | viscosity ([1]; 313.15 K): 43.67 ± 0.96 mPa·s | speed of sound ([1]; 313.15 K): 1360.7 ± 2.8 m/s | mass density ([1]; 313.15 K): 1285.47 ± 2.4 kg/m3 | viscosity ([1]; 318.15 K): 36.29 ± 0.92 mPa·s | speed of sound ([1]; 318.15 K): 1349.9 ± 2.8 m/s | mass density ([1]; 318.15 K): 1281.47 ± 2.4 kg/m3 | viscosity ([1]; 323.15 K): 30.57 ± 0.88 mPa·s | speed of sound ([1]; 323.15 K): 1338.8 ± 2.8 m/s | mass density ([1]; 323.15 K): 1277.48 ± 2.4 kg/m3

CC#N [acetonitrile]
viscosity ([1]; 298.15 K): 0.34 mPa·s | speed of sound ([1]; 298.15 K): 1278.5 ± 2.2 m/s | mass density ([1]; 298.15 K): 776.714 ± 2 kg/m3 | viscosity ([1]; 303.15 K): 0.32 mPa·s | speed of sound ([1]; 303.15 K): 1258.4 ± 2.2 m/s | mass density ([1]; 303.15 K): 771.289 ± 2 kg/m3 | viscosity ([1]; 308.15 K): 0.31 mPa·s | speed of sound ([1]; 308.15 K): 1238.2 ± 2.2 m/s | mass density ([1]; 308.15 K): 765.833 ± 2 kg/m3 | viscosity ([1]; 313.15 K): 0.3 mPa·s | speed of sound ([1]; 313.15 K): 1218 ± 2.2 m/s | mass density ([1]; 313.15 K): 760.339 ± 2 kg/m3 | viscosity ([1]; 318.15 K): 0.29 mPa·s | speed of sound ([1]; 318.15 K): 1197.9 ± 2.2 m/s | mass density ([1]; 318.15 K): 754.815 ± 2 kg/m3 | viscosity ([1]; 323.15 K): 0.28 mPa·s | speed of sound ([1]; 323.15 K): 1177.8 ± 2.2 m/s | mass density ([1]; 323.15 K): 749.253 ± 2 kg/m3

CC#N [acetonitrile] + CCCCn1cc[n+](C)c1.O=S(=O)([O-])C(F)(F)F
viscosity ([2]; 298.15 K): 0.34 mPa·s | speed of sound ([2]; 298.15 K): 1278.5 ± 2.2 m/s | mass density ([2]; 298.15 K): 776.714 ± 2 kg/m3 | viscosity ([2]; 303.15 K): 0.32 mPa·s | speed of sound ([2]; 303.15 K): 1258.4 ± 2.2 m/s | mass density ([2]; 303.15 K): 771.289 ± 2 kg/m3 | viscosity ([2]; 308.15 K): 0.31 mPa·s | speed of sound ([2]; 308.15 K): 1238.2 ± 2.2 m/s | mass density ([2]; 308.15 K): 765.833 ± 2 kg/m3 | viscosity ([2]; 313.15 K): 0.3 mPa·s | speed of sound ([2]; 313.15 K): 1218 ± 2.2 m/s | mass density ([2]; 313.15 K): 760.339 ± 2 kg/m3 | viscosity ([2]; 318.15 K): 0.29 mPa·s | speed of sound ([2]; 318.15 K): 1197.9 ± 2.2 m/s | mass density ([2]; 318.15 K): 754.815 ± 2 kg/m3 | viscosity ([2]; 323.15 K): 0.28 mPa·s | speed of sound ([2]; 323.15 K): 1177.8 ± 2.2 m/s | mass density ([2]; 323.15 K): 749.253 ± 2 kg/m3

Reference: the NIST ThermoML archive (doi:10.1021/acs.jced.8b00176)
